# Data taken from ChEMBL document CHEMBL1212705, “Gene expression signatures and small-molecule compounds link a protein kinase to Plasmodium falciparum motility” (Nat Chem Biol, 2008).
# pEC50, pIC50: −log10 of the molar value.
# Experiments:
# [1] = Inhibition of GST-fused Plasmodium falciparum recombinant CDPK1 expressed in Escherichia coli Rosetta 2 assessed as inhibition of [gamma-33P]ATP incorporation into substrate peptide by scintillation counting
# Plasmodium falciparum [2] = assay: Antiplasmodial activity against Plasmodium falciparum 3D7 after 72 hrs by SYBR green assay; type: functional, organism-based; settings: 3D7, 72 h
# Plasmodium falciparum [3] = assay: Antiplasmodial activity against Plasmodium falciparum 3D7 by [3H]hypoxanthine incorporation assay; settings: 3D7, 3 h
SMILES,pIC50 [1],pEC50 (Plasmodium falciparum [2]),pEC50 (Plasmodium falciparum [3])
N[C@H]1CC[C@H](Nc2nc(Nc3ccc(C(=O)N4CCCCC4)cc3)c3ncn(-c4cccc(C(=O)O)c4)c3n2)CC1,7.15,< 5.00,
O=C(c1ccc(Nc2nc(NCCc3c[nH]cn3)nc3c2ncn3-c2cccc(Cl)c2)cc1)N1CCCCC1,6.20,6.45,
N[C@H]1CC[C@H](Nc2nc(Nc3ccc(CN4CCOCC4)cc3)c3ncn(-c4ccccc4)c3n2)CC1,6.15,6.76,
CC(C)(C)c1ccc(-n2cnc3c(Nc4ccc(C(=O)N5CCCCC5)cc4)nc(N[C@H]4CC[C@H](N)CC4)nc32)cc1,5.46,6.22,
N[C@H]1CC[C@H](Nc2nc(Nc3ccc(C(=O)N4CCCCC4)cc3)c3ncn(-c4cccc(OCc5ccccc5)c4)c3n2)CC1,5.39,6.51,
O=C(c1ccc(Nc2nc(N[C@H]3CC[C@H](O)CC3)nc3c2ncn3-c2cccc(F)c2)cc1)N1CCCCC1,6.82,< 5.00,
C[C@@H]1CC[C@H]2[C@@H](C)C(=O)O[C@@H]3O[C@@]4(C)CC[C@@H]1[C@]32OO4 [ARTEMISININ],,7.55,> 8.00
O=C(c1ccc(Nc2nc(Nc3cnc4ccccc4c3)nc3c2ncn3-c2ccccc2)cc1)N1CCCCC1,5.41,7.00,
O=C(c1ccc(Nc2nc(NCCCN3CCOCC3)nc3c2ncn3-c2ccccc2)cc1)N1CCCCC1,6.37,5.52,
CN1CCN(C(=O)c2cccc(Nc3nc(N[C@H]4CC[C@H](N)CC4)nc4c3ncn4-c3ccccc3)c2)CC1,5.16,5.89,
N[C@H]1CC[C@H](Nc2nc(Nc3ccc(C(=O)N4CCCCC4)cc3)c3ncn(-c4ccc5c(c4)OCO5)c3n2)CC1,6.47,6.40,
N[C@H]1CC[C@H](Nc2nc(Nc3ccc(C(=O)N4CCCCC4)cc3)c3ncn(-c4ccc(C(=O)O)cc4)c3n2)CC1,7.55,< 5.00,
CCOc1ccc(-n2cnc3c(Nc4ccc(C(=O)N5CCCCC5)cc4)nc(N[C@H]4CC[C@H](N)CC4)nc32)cc1,6.62,6.27,
CCN(CC)CCCC(C)Nc1ccnc2cc(Cl)ccc12 (configuration not stated) [CHLOROQUINE],,,> 8.00
